The test system of test [1] is C2C12 cells. The test is described as follows: Cell viability assay (CellTiter-Glo / automated cell number) in C2C12. It is filed as cell-based. As to conditions: Mus musculus, read-out: Inhibition of cell viability IC50. The source says: (§1) Luminescent cell viability assay. For the detection of cell viability, the CellTiter-Glo® Luminescent Cell Viability Assay was used. This test is based on a luciferase reaction to measure the amount of ATP in cells. This correlates directly with the number of cells and their viability because cells lose the ability to synthesize ATP directly after e.g. loss of membrane integrity or a cytotoxic event. The protocol was adapted to 24 well plates and to the different culture conditions resulting in a standardized protocol which is described below. Cell lysis, inhibition of endogenous ATPases and detection of ATP was performed by adding the CellTiter-Glo® Reagent to the culture wells. Per well, 100 μl reagent were mixed with the same volume of proper Medium. Lysing of the cells took place by 10 min incubation at RT and moderate shaking. Three times 50 μl cell lysate was transferred into a white 96 well plate to eliminate stray light, and the bioluminescence was measured.
(§2) In a 96 well dish 10000 cells per well (100 μl) were seed and treated for 72 h. At the end of the treatment, cells were fixed with 4% paraformaldehyde in PBS for 15 minutes, permeabilized with 0.1% triton-X 100 in PBS for 15 minutes and stained with Hoechst 33342 (20 μg/ml in PBS; dilute from 20 mg/ml stock) directly to cells in 100 μl medium in PBS for 30 minutes at 37° C. Stained cells were imaged with a Cellomics ArrayScan VT I automated microscope. Images were analyzed with vHCS Scan Target Activation software v5.1.2 to identify apoptotic cells. Six fields per well of a 96 well plate we re-imaged at 10× magnification. First, cells were identified by their nuclei staining in channel 1 of Cellomics and their amount. Staining intensity was plotted and compared between NT controls and compound treated cells. Finally, data was obtained using vHCS View software v 5.1.2 and the numbers of cells present in the 96 well were identified as “Valid Object Count” whereas the percentage of infection was determined as “% selected”. IC50 values have been calculated accordingly.
(Cellular ATP, detected with luciferase, serves as a proxy for viable cell number.)

For test [2], the system named is 3T3-L1 cells. The experiment in a line: Cell viability assay (CellTiter-Glo / automated cell number) in 3T3-L1. It is filed as cell-based. The following applies: Mus musculus, read-out: Inhibition of cell viability IC50.
From the text: as §1, §2

Test [3] deals with HepG2 cells. The test is described as follows: Cell viability assay (CellTiter-Glo / automated cell number) in HepG2. The class given is cell-based. As to conditions: Homo sapiens, read-out: Inhibition of cell viability IC50.
From the text: as §1, §2

Test [4] has as its target T1, full length GRK5 (Homo sapiens, UniProt P34947).
T1 construct: 6/2 fold concentrated full length GRK5 (Millipore, #14-714) in reaction buffer; purchased Millipore 14-714
The test is described as follows: GRK5 kinase activity assay, ADP Glo Kinase Assay technology (Promega). The class given is biochemical. The following applies: group II; ADP Glo Kinase Assay (Table 9-B). The gist of the method: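 Casein (10 μM) phosphorylation with 100 μM ATP in 20 mM MES pH 6.0, 1 mM DTT, 10 mM MgCl2, 0.01% Tween20, 120 min at room temperature; ADP quantified by ADP-Glo luminescence.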

For test [5], the target named is T2, GRK5 (Homo sapiens, UniProt P34947).
T2 construct: purchased Millipore (KinaseProfiler service)
T2 sequence (P34947 whole entry): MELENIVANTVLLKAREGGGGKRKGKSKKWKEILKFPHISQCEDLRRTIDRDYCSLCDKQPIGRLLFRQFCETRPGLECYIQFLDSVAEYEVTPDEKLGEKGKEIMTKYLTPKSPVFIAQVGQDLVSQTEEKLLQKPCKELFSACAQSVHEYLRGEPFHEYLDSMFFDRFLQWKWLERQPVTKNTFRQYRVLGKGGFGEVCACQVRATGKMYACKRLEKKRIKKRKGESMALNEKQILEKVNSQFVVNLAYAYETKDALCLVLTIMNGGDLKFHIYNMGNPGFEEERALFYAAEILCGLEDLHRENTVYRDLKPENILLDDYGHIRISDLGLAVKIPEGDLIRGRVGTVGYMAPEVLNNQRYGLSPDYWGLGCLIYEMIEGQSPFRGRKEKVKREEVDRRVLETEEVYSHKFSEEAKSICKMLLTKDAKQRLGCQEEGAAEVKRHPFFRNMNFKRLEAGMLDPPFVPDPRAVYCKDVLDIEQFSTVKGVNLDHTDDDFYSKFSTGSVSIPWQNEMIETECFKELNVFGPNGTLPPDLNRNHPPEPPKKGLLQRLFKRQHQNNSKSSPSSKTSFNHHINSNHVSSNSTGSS
The test is described as follows: Millipore KinaseProfiler radiometric filtration binding assay. It is filed as biochemical. As to conditions: group II; Millipore KinaseProfiler (Table 10). As for the experimental part: (§3) As alternative, IC50 values are determined by a radiometric based filtration binding assay, namely Millipore KinaseProfiler™. GRK5 is incubated with 8 mM MOPS pH7.0, 0.2 mM EDTA, 2 mg/mL casein, 10 mM MgAcetate and […] (specific activity approx. 500 cpm/pmol, concentration as required). The reaction is initiated by the addition of the MgATP mix. After incubation for 40 minutes at room temperature, the reaction is stopped by the addition of 3% phosphoric acid solution. 10 μL of the reaction is then spotted onto a P30 filtermat and washed three times for 5 minutes in 75 mM phosphoric acid and once in methanol prior to drying and scintillation counting.
as §3, with “IC50” for “As alternative, IC50”, “pH 7.0,” for “pH7.0,”

The subject of test [6] is beta TC6 cells. The test is described as follows: Cell viability assay (CellTiter-Glo / automated cell number) in beta TC6. It is filed as cell-based. The following applies: Mus musculus, read-out: Inhibition of cell viability IC50.
From the text: as §1, §2

Test [7] deals with beta-TC6 insulinoma cells. The experiment in a line: Insulin release by beta-TC6 cells, rat/mouse insulin ELISA, high glucose. It is filed as cell-based. The following applies: Mus musculus, Beta-TC6, 2 h, group II; 5 μM, 2 h, high glucose (4.5 g/L); % increase in regard to DMSO control (set at 0%). As for the experimental part: (§4) Release of insulin was detected using a rat/mouse insulin ELISA.
After incubation, the supernatant of the beta-TC6 insulinoma cells was diluted 1:20. The insulin release was measured with rat/mouse insulin ELISA (Merck Millipore Darmstadt, Cat. # EZRMI-13K) by following the manufacture protocol. The enzyme activity of the horseradish peroxidase of the immobilized biotinylated antibodies was monitored spectrophotometrically by the increased absorbency at 490 nm, and corrected by the absorbency at 610 nm.
as §4
The effect on the insulin release of each kinase depletion was monitored by using a rat/mouse insulin ELISA.
For the validation of the negative modulating kinases SCYL1, GRK5, and ADCK1, the target genes were depleted using four different siRNA-sequences each (FIG. 2A-D). The gene-depletion was measured via mRNA-levels after 72 hours while the insulin release was measured using a rat/mouse insulin ELISA after two hours incubation.
On the technique in general: An ELISA detects its analyte on a solid surface through an enzyme-linked reagent.

Each structure is given as a SMILES string.

Our source for the IC50 and activation values is US9458463B2, “Method for treatment of diabetes by a small molecule inhibitor for GRK5” (MAX-PLANCK-GESELLSCHAFT ZUR FÖRDERUNG DER WISSENSCHAFTEN …, priority 2010, dated 2016).

T1 sequence (P34947 whole entry): as above

Regarding `C[C@@H](c1ccccc1)N(C)C(=O)c1ccc2c(c1)/C(=C/Nc1ccc(CN3CCCCC3)cc1)C(=O)N2` [II.71, (3Z)-N-methyl-2-oxo-N-[(1S)-1-phenylethyl]-3-({[4-(piperidin-1-ylmethyl)phenyl]amino}methylene)indoline-5-carboxamide], the 50% inhibitory concentration (IC50) (as a rule, the concentration that inhibits the measured activity by half) in test [1] is 4.26 µM; in test [2] it was 3.1 µM; in test [3], 2.53 µM; in test [4], 2 to 10 µM; in test [5], 2 to 10 µM; in test [6] it was 2.75 µM.

`CC[C@@H](NC(=O)c1ccc2c(c1)/C(=C/c1[nH]c(C)c(C(=O)N3CCC[C@@H]3CN3CCCC3)c1C)C(=O)N2)c1ccccc1` [II.48, (3Z)-3-[(3,5-dimethyl-4-{[(2R)-2-(pyrrolidin-1-ylmethyl)pyrrolidin-1-yl]carbonyl}-1H-pyrrol-2-yl)methylene]-2-oxo-N-[(1R)-1-phenylpropyl]indoline-5-carboxamide]: the half-maximal inhibitory concentration (IC50) in test [1] was above 10 µM; in test [2] it was 0.6 µM; in test [3] it was 1.43 µM; in test [4], 0.1 to 1 µM; in test [5] it was 0.1 to 1 µM; in test [6], 1.08 µM.

Regarding `CC[C@@H](NC(=O)c1ccc2c(c1)/C(=C/c1[nH]c(C)c(CCC(=O)O)c1C)C(=O)N2)c1ccccc1` [II.130, (3Z)-3-{2,4-dimethyl-5-[2-oxo-5-(1R)-(1-phenyl-propylcarbamoyl)-1,2-dihydro-indol-3-ylidenemethyl]-1H-pyrrol-3-yl}-propionic acid], the IC50 was above 10 µM in test [1]; above 10 µM in test [2]; 1.58 µM in test [3]; 0.1 to 1 µM in test [4]; 8.52 µM in test [6]. For the same compound, the activation at 5 µM in test [7] is 103%.

Consider `CCC(NC(=O)c1ccc2c(c1)/C(=C/c1[nH]c(C)c(C(=O)NCCN3CCCC3)c1C)C(=O)N2)c1cccc(Cl)c1` (stereo not shown) [II.11, (3Z)-N-[1-(3-chlorophenyl)propyl]-3-({3,5-dimethyl-4-[(2-pyrrolidin-1-ylethyl)carbamoyl]-1H-pyrrol-2-yl}methylene)-2-oxoindoline-5-carboxamide], for which the half-maximal inhibitory concentration (IC50) in test [1] was 3.37 µM; in test [2], above 10 µM; in test [3] it was 0.8 µM; in test [4], 0.1 to 1 µM; in test [6], 0.96 µM. The compound also returned an activation at 5 µM in test [7] of 96%.

Take `Cc1ccc([C@@H](C)NC(=O)c2ccc3c(c2)/C(=C/c2[nH]c(C)c(C(=O)N4CCN(C)CC4)c2C)C(=O)N3)cc1` [II.32, (3Z)-3-({3,5-dimethyl-4-[(4-methylpiperazin-1-yl)carbonyl]-1H-pyrrol-2-yl}methylene)-N-[(1R)-1-(4-methylphenyl)ethyl]-2-oxoindoline-5-carboxamide]: the IC50 was 4.25 µM in test [1]; 0.7 µM in test [2]; 1.23 µM in test [3]; 1 to 2 µM in test [4]; 1.6 µM in test [6]. For the same compound, the activation at 5 µM in test [7] was determined as 143%.

With `CC[C@@H](NC(=O)c1ccc2c(c1)/C(=C/c1[nH]c(C)c(CCC(=O)NCCN(CC)CC)c1C)C(=O)N2)c1ccccc1` [II.131, (3Z)-3-{4-[2-(2-diethylamino-ethylcarbamoyl)-ethyl]-3,5-dimethyl-1H-pyrrol-2-ylmethylene}-2-oxo-2,3-dihydro-1H-indole-5-carboxylic acid (1-phenyl-propyl)-amide], the 50% inhibitory concentration (IC50) in test [1] was above 10 µM; in test [2] it was above 10 µM; in test [3] it was 1.49 µM; in test [4], 0.1 to 1 µM; in test [6] it was 3.47 µM. In test [7], this compound displayed an activation at 5 µM of 134%.

Compound `Cc1[nH]c(/C=C2\C(=O)Nc3ccc(C(=O)N[C@H](C)c4ccccc4)cc32)c(C)c1C(=O)N1CCC[C@H]1CN1CCCC1` [II.16, (3Z)-3-[(3,5-dimethyl-4-{[(2S)-2-(pyrrolidin-1-ylmethyl)pyrrolidin-1-yl]carbonyl}-1H-pyrrol-2-yl)methylene]-2-oxo-N-[(1R)-1-phenylethyl]indoline-5-carboxamide] gave an IC50 in test [5] of 0.1 to 1 µM.
